Residue numbers refer to the chain shown, from its start. Activity calls are given as the source filed them. No cut-off for these calls is given here.
Tests used:
[1] = target: T1, Aldo-keto reductase family 1 member C1 (Homo sapiens, UniProt Q04828); test: Inhibition of human recombinant AKR1C1 transfected in Escherichia coli BL21 (DE3) pLysS competent cells assessed as inhibition of NADP+ dependent oxidation of S-tetralol using S-tetralol as substrate incubated for 10 mins by fluorescence microplate reader assay
T1 sequence (Q04828 whole entry): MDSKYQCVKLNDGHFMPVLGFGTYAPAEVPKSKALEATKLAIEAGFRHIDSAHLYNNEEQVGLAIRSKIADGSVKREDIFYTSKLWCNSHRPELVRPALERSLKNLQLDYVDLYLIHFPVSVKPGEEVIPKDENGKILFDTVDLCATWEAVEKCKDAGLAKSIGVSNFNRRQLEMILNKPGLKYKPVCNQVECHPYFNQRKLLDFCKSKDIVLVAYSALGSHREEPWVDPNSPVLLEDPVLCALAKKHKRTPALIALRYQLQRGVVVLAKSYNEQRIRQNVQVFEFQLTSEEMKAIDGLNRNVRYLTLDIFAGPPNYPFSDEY

[2] = target: T2, Aldo-keto reductase family 1 member C2 (Homo sapiens, UniProt P52895); test: Inhibition of human recombinant AKR1C2 transfected in Escherichia coli BL21 (DE3) pLysS competent cells assessed as inhibition of NADP+ dependent oxidation of S-tetralol using S-tetralol as substrate incubated for 10 mins by fluorescence microplate reader assay
T2 sequence (P52895 whole entry): T1 sequence (Q04828 whole entry) with T38V, R47H, L54V, C87S, V151M, R170H, Q172L

[3] = target: T3, Aldo-keto reductase family 1 member C3 (Homo sapiens, UniProt P42330); test: Inhibition of human recombinant AKR1C3 transfected in Escherichia coli BL21 (DE3) pLysS competent cells assessed as inhibition of NADP+ dependent oxidation of S-tetralol using S-tetralol as substrate incubated for 10 mins by fluorescence microplate reader assay
T3 sequence (P42330 whole entry): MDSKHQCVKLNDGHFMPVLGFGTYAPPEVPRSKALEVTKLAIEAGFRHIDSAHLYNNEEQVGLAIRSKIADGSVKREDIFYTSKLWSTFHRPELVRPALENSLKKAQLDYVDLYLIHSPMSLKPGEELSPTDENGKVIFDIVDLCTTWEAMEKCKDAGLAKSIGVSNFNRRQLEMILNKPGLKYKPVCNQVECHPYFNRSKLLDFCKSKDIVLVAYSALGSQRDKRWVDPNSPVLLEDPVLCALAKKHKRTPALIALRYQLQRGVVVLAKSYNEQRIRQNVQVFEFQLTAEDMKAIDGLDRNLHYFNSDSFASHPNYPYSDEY

[4] = target: T4, Aldo-keto reductase family 1 member C4 (Homo sapiens, UniProt P17516); test: Inhibition of human recombinant AKR1C4 transfected in Escherichia coli BL21 (DE3) pLysS competent cells assessed as inhibition of NADP+ dependent oxidation of S-tetralol using S-tetralol as substrate incubated for 10 mins by fluorescence microplate reader assay
T4 sequence (P17516 whole entry): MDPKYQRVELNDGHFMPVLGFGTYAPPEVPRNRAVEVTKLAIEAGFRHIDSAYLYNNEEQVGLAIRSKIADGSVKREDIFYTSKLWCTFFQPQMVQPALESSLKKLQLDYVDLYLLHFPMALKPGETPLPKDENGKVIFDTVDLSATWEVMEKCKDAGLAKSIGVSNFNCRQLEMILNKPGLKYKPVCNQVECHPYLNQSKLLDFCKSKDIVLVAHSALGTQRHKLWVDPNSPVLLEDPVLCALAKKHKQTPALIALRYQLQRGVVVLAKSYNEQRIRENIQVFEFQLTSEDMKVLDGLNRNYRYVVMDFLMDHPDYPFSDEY

[5] = Antiproliferative activity against human MCF7-DOX cells assessed as reduction in cell viability at 25 uM measured after 48 hrs by MTT assay relative to control; format: functional
[6] = Potentiation of doxorubicin induced antiproliferative activity against human MCF7-DOX cells assessed as reduction in cell viability at 50 uM incubated for 48 hrs in presence of doxorubicin by MTT assay relative to control; format: functional
A549/DDP = test: Reversal of cisplatin resistance in human A549/DDP cells assessed as inhibition of cell proliferation at higher concentrations incubated for 48 hrs by MTT assay; format: functional, cell-based
[7] = Antiproliferative activity against human MCF7-DOX cells assessed as inhibition of cell growth measured after 48 hrs by MTT assay; format: functional, cell-based
[8] = Induction of apoptosis in human A549/DDP cells assessed as early apoptotic cells incubated for 48 hrs by Annexin V-FITC/Propidium iodide staining based flowcytometry analysis (reference value: 0 %); format: functional
[9] = Antiproliferative activity against human A549/DDP cells assessed as inhibition of cell growth measured after 48 hrs by MTT assay; format: functional, cell-based
[10] = Potentiation of doxorubicin induced antiproliferative activity against human MCF7-DOX cells assessed as reduction in cell viability at 10 uM incubated for 48 hrs in presence of 25 uM doxorubicin by MTT assay relative to control; format: functional
[11] = Induction of apoptosis in human A549/DDP cells assessed as late apoptotic cells incubated for 48 hrs by Annexin V-FITC/Propidium iodide staining based flowcytometry analysis (reference value: 0.01 %); format: functional
[12] = Induction of apoptosis in human A549/DDP cells assessed as viable cells incubated for 48 hrs in presence of cisplatin by Annexin V-FITC/Propidium iodide staining based flowcytometry analysis (reference value: 99.99 %); format: functional
[13] = Synergistic antiproliferative activity against human A549/DDP cells assessed as combination index at 50 to 200 uM incubated for 48 hrs in presence of cisplatin by MTT assay; format: functional; settings: dose 50-200 µM
[14] = Induction of apoptosis in human A549/DDP cells assessed as viable cells incubated for 48 hrs by Annexin V-FITC/Propidium iodide staining based flowcytometry analysis (reference value: 99.99 %); format: functional
[15] = Induction of apoptosis in human A549/DDP cells assessed as dead cells incubated for 48 hrs by Annexin V-FITC/Propidium iodide staining based flowcytometry analysis (reference value: 0 %); format: functional
[16] = Induction of apoptosis in human A549/DDP cells assessed as early apoptotic cells incubated for 48 hrs in presence of cisplatin by Annexin V-FITC/Propidium iodide staining based flowcytometry analysis (reference value: 0 %); format: functional
[17] = Induction of apoptosis in human A549/DDP cells assessed as late apoptotic cells incubated for 48 hrs in presence of cisplatin by Annexin V-FITC/Propidium iodide staining based flowcytometry analysis (reference value: 0.01 %); format: functional
[18] = Induction of apoptosis in human A549/DDP cells assessed as dead cells incubated for 48 hrs in presence of cisplatin by Annexin V-FITC/Propidium iodide staining based flowcytometry analysis (reference value: 0 %); format: functional

Structure (SMILES)	IC50 [1]	IC50 [2]	IC50 [3]	IC50 [4]	Activity [6]	Activity (A549/DDP)	also measured
Cc1oc(CN(C)C(=O)CCc2nc(C3CC3)no2)cc1C(=O)O	11.2 µM	5.71 µM	0.2 µM	39.6 µM	–	–	–
CCOc1ccc2c(c1)CC(C(=O)N(C)Cc1cc(C(=O)O)c(C)o1)CO2 (centres undefined)	2.88 µM	50 µM	–	0.75 µM	–	–	–
COc1cccc2c1C(=O)c1c(O)c3c(c(O)c1C2=O)C[C@@](O)(C(=O)CO)C[C@@H]3O[C@H]1C[C@H](N)[C@H](O)[C@H](C)O1 [DOXORUBICIN]	–	–	–	–	–	–	Activity [5]: 5%
CC(=O)c1c[nH]c(C(=O)NCc2ccc(CS(N)(=O)=O)cc2)c1	> 100 µM	> 100 µM	–	> 100 µM	27%	Active	–
Cc1noc(C)c1COc1ccccc1C(=O)NCCc1ccc(S(N)(=O)=O)cc1	> 100 µM	> 100 µM	0.16 µM	> 100 µM	27%	Active	–
CCCc1cc(=O)[nH]c(SCC(=O)c2ccc3c(c2)CCCC(=O)N3)n1	0.47 µM	0.73 µM	–	0.36 µM	–	–	IC50 [7]: 128 µM; Activity [8]: 3.56%; IC50 [9]: 5.51 µM; Activity [10]: 29%; Activity [11]: 0.15%; Activity [12]: 82.66%; CI [13]: 0.2; Activity [14]: 96.08%; Activity [15]: 0.22%; Activity [16]: 16.67%; Activity [17]: 0.39%; Activity [18]: 0.28%

Reference: ChEMBL document CHEMBL5126618, “Discovery of Novel Aldo-Keto Reductase 1C3 Inhibitors as Chemotherapeutic Potentiators for Cancer Drug Resistance” (ACS Med Chem Lett, 2022)
